{"source": "patent US7335682B2", "about": "“Pharmaceutical compositions and methods for treating immune-response associated diseases of the surface and the anterior segment of the eye” (The Zhongshan Opthalmic Center, priority 2000, dated 2008)", "key": {"[1]": {"system": "immune rejection of allotypic cornea transplantation", "conditions": "rat; for effect on immune rejection in allotypic cornea transplantation: superficial (ocular surface) administration"}, "[2]": {"system": "immune rejection in high risk cornea transplantation", "assay": "Clinical study of suppression of immune rejection in high risk cornea transplantation", "from_the_text": "Fifty-six high risk patients (56 eyes) who needed operation for cornea transplantation were randomly divided into a treatment group and a control group, each having […] patients. […] Average time for follow-up survey was 5½ months. The main criteria for clinical valuation include visual function, lasting time for transparency, new angiopoiesis, swelling, opaque degree of transplanted corneas after operation.\n56 high risky patients (56 eyes) who need operation for cornea transplantation were chosen in this study with 32 eyes from male and 24 from female. The average age was 31 (19-66). Of which 27 eyes were carried for full cornea transplantation, 14 for full cornea transplantation with scleral ring, 10 eyes with angiopoiesis cornea were used for cornea transplantation, and 10 for multiple transplantations. Blindness was caused by pyogenic infection of eyes (30 eyes), severe chemical injury (18 eyes), and thermal burn (8 eyes).\nThe control medicine CsA was a product of Swiss Sandoz pharmaceuticals which was diluted to 1% eye drops with oleum ricini. Corticosteroid eye drops was also purchased commercially.\nThe above cases were randomly divided into treatment group and control group with each having 28 eyes. […] Medicines were given 3 days after surgery, continuing 3-9 months, follow-up survey was 5½ months.\nObservation was done twice a week within 1-3 months after medication, then once a week after 3 months. The items for observation were vision and transplanted corneas (including three criteria: new angiopoiesis, swelling, opacity of transplanted corneas). The scores for each criterion are as follows: new angiopoiesis has grades 0-3, grade 0 indicates no new angiopoiesis (0 score), grade 1 a few new angiopoiesis focusing on transplanted corneas and starting penetration the edges of transplantation (1 score), grade 2 a few new angiopoiesis focusing on center of the transplanted corneas (2 scores), grade 3 a great numbers of new angiopoiesis fully covering the whole transplanted corneas (3 scores). The swelling contains grades 0-3, grade 0 means no swelling (0 score), grade 1 light swelling (1 score), grade 2 medium swelling (2 scores), grade 3 severe swelling (3 scores). […] Rejection index (RI) is a sum of the previous 3 criteria. When RI=5 scores it is considered rejection. The study would not cover the following conditions: epithelium had reaction of rejection, complication happened during operation, and swelling and dissolution of transplanted corneas occurred after operation due to a functional failure of implanted cornea endothelia, lesion fissure, secondary glaucoma, infection of transplantation.\nAll operations on patients in the study were done by professors in the Department of Corneal Diseases. Donor corneas were all freshly obtained from adults. Specific people were assigned for follow-up survey after surgery. t-test, u-test, and analysis of variance were carried out on the data using commercially available software."}, "[3]": {"system": "immune-response related ocular surface diseases", "assay": "Further clinical observations with topical tacrolimus in immune ocular diseases", "format": "in vivo, patients"}, "[4]": {"conditions": "cited from earlier work"}, "immunosuppression": {"system": "immunosuppression", "conditions": "in vitro; cited from earlier work"}}, "note": "Read-outs that look alike come from different tables or passages of the source.", "data": [{"smiles": "C=CC[C@@H]1/C=C(\\C)C[C@H](C)C[C@H](OC)[C@H]2O[C@@](O)(C(=O)C(=O)N3CCCC[C@H]3C(=O)O[C@H](/C(C)=C/[C@@H]3CC[C@@H](O)[C@H](OC)C3)[C@H](C)[C@@H](O)CC1=O)[C@H](C)C[C@@H]2OC.O", "note": "[tacrolimus, Tacrolimus]", "values": [{"measurement": "effect on immune rejection in allotypic cornea transplantation", "setting": "[1]", "result": "clear inhibition"}, {"measurement": "effect on immune rejection in allotypic cornea transplantation", "setting": "[1]; listed as Tecolimus", "result": "clearly therapeutic effects"}, {"measurement": "effect on swelling of transplanted corneas in early phase", "setting": "[1]; superficial administration", "result": "worse therapeutic effects"}, {"measurement": "final rate of rejection to the transplantation", "setting": "[2]; 28 eyes per group, RI=5 counted as rejection, follow-up 5½ months", "result": 60.8, "unit": "%"}, {"measurement": "maintenance time for transparency in transplanted corneas after surgery", "setting": "[2]; 28 eyes per group, eye drops four times a day with TOBRA DEX", "result": "70.4 ± 18.32", "unit": "days"}, {"measurement": "eyes with final vision (=0.05 for FK-506, =0.5 for CsA as printed)", "setting": "[2]; 28 eyes per group, with TOBRA DEX, follow-up 5½ months", "result": 39.3, "unit": "%"}, {"measurement": "new angiopoiesis, swelling, opaqueness and RI values of cornea transplantation", "setting": "[2]; during follow-up survey", "result": "much better than the CsA group"}, {"measurement": "adverse reactions (twinges, itches, toxic reactions on cornea epithelia)", "setting": "[2]; topical eye drops, patients", "result": "No patient showed adverse reactions"}, {"measurement": "conjunctive inflammation non-responsive to CsA treatment", "setting": "[3]; 17 cases, topical administration", "result": "successfully controlled"}, {"measurement": "recurrence of recurring erosive corneal ulcer", "setting": "[3]; 26 cases, five months to two years, topical", "result": "only three cases had recurrence"}, {"measurement": "rejection reaction in cornea transplantation", "setting": "[3]; 64 cases, most of them, topical", "result": "significantly reduced rejection reaction"}, {"measurement": "effect on Type I and IV hypersensitive reactions", "setting": "[3]; topical administration", "result": "significant therapeutic effects"}, {"measurement": "effect on Types II and III hypersensitive reactions (e.g. Steven Johnson Syndrome)", "setting": "[3]; topical administration", "result": "some, but not complete therapeutic effect"}, {"measurement": "effect on re-construction of ocular surface and obstinate and immune corneal diseases", "setting": "[3]; topical administration", "result": "excellent clinical effects"}, {"measurement": "terminal elimination half-life", "setting": "[4]; healthy volunteers", "result": 21.2, "unit": "h"}, {"measurement": "absorption half-life", "setting": "[4]; oral dose, measured in 16 patients", "result": "5.7 ± 4.6", "unit": "h"}, {"measurement": "terminal elimination half-life", "setting": "[4]; transplant patients", "result": "11.7 ± 3.9", "unit": "h"}, {"measurement": "effect on immunosuppression relative to CsA", "setting": "immunosuppression", "result": "10-100 folds"}]}, {"smiles": "C[C@@H]1C[C@H]2[C@@H]3CCC4=CC(=O)C=C[C@]4(C)[C@@]3(F)[C@@H](O)C[C@]2(C)[C@@]1(O)C(=O)CO", "note": "[corticosteroid, dexamethasone]", "values": [{"measurement": "effect on inflammation in early phase", "setting": "[1]; superficial administration", "result": "strong inhibition effect"}, {"measurement": "inhibition of new angiopoiesis after cornea transplantation", "setting": "[1]; superficial administration", "result": "strongest effect"}]}]}
